Literature values, collected in paper PMC8148172, “Evaluation of a Keratin 1 Targeting Peptide-Doxorubicin Conjugate in a Mouse Model of Triple-Negative Breast Cancer” (Pharmaceutics, 2021).

What was measured:
[1] = parameters: method as in PMID 27370248, PMID 16515518; conditions: as conjugate with circulating albumin
TNBC = tested on: TNBC; parameters: method as in PMID 28520410

Molecule | greater doses of Dox administered with minimal cardiotoxicity [1] | targeting of TNBC relative to linear 18-4 peptide (TNBC)
COc1cccc2c1C(=O)c1c(O)c3c(c(O)c1C2=O)C[C@@](O)(/C(CO)=N/NC(=O)CCCCCN1C(=O)C=CC1=O)C[C@@H]3O[C@H]1C[C@H](N)[C@H](O)[C@H](C)O1 [Aldox, aldoxorubicin] | 3–4 × | –
N- to C-terminal cyclized WXEAAYQkFL [cyclic analogue of 18-4] | – | 2–3 fold
